Drawing on patent US20030153575A1, “Tetracyclic diketopiperazine compounds as pdev inhibitors” (priority 2002, published 2003), this text covers melting point and IC50 for two compounds.

One may read the melting point as the temperature of the solid-liquid transition. As usually defined, the IC50 is the concentration that inhibits the measured activity by half.

One series deals with human recombinant PDE5 (Homo sapiens, UniProt O76074). Kind of series: Inhibitory effect on cGMP-PDE (PDE5 IC50). Type of series: biochemical. The following applies: in vitro, human recombinant PDE5, 0.15 μM 8-[H3]-cGMP, 30 min incubation. On the procedure:
The compounds of structural formula (I) were tested for an ability to inhibit PDE5. The ability of a compound to inhibit PDE5 activity is related to the IC50 value for the compound, i.e., the concentration of inhibitor required for 50% inhibition of enzyme activity. The IC50 value for compounds of structural formula (I) were determined using recombinant human PDE5.
cGMP-PDE activity of compounds of the present invention was measured using a one-step assay adapted from Wells et al., Biochim. Biophys. Acta, […], 430 (1975). The reaction medium contained 50 mM Tris-HCl, pH 7.5, 5 mM magnesium acetate, 250 μg/ml 5′-Nucleotidase, 1 mM EGTA, and 0.15 μM 8-[H^3]-cGMP. Unless otherwise indicated, the enzyme used was a human recombinant PDE5 (ICOS Corp., Bothell, Wash.).
Compounds of the invention were dissolved in DMSO finally present at 2% in the assay.

Molecules are shown by their SMILES.

As to `CN1CC(=O)N2[C@H](c3ccc(O)c(O)c3)c3[nH]c4ccccc4c3C[C@@H]2C1=O` [Example 1, (6R,12aR)-6-(3,4-Dihydroxyphenyl)-2-methyl-2,3,6,7,12,12a-hexahydropyrazino[1′,2′:1,6]-pyrido[3,4-b]indole-1,4-dione], the melting point is 250.5 to 256.6 °C. Besides, the IC50 at human recombinant PDE5 was found to be 45 nM.

On to `COc1cc([C@@H]2c3[nH]c4ccccc4c3C[C@@H]3C(=O)N(C)CC(=O)N23)ccc1O` [Example 2, (6R,12aR)-6-(4-Hydroxy-3-methoxyphenyl)-2-methyl-2,3,6,7,12,12a-hexahydropyrazino[1′,2′:1,6]-pyrido[3,4-b]indole-1,4-dione], for which the melting point was in the range of 288.2 to 292.2 °C. For the same compound, the IC50 at human recombinant PDE5 is 230 nM.
